“Also recorded” adds a separate entry of the source.
Experiments:
F. nucleatum = settings: FIG. 4
Experimental: Incubate one of the periodontal bacteria for 4 hours with/without hydrogen and measure the hydrogen sulfide concentration.
Culture F. nucleatum (oral bacteria that produce H2S) overnight.
Incubate F. nucleatum in H2 or N2 condition for 4 hours.
Keep supernatant (3 ml) in 15 ml conical tube at 4° C.
Measure the H2S concentration in the conical tube (N=5, 1:10 dilution).

[1] = H2 amount in mice after oral inulin; type: in vivo; settings: oral administration
[2] = test system: patients suffering from minimal hepatic encephalopathy (MHE); settings: compared to placebo or no intervention; cited from earlier work
LDLR knockout mice [3] = assay: Liver histology, fatty liver development in LDLR knockout mice on high fat diet (Example 3); type: in vivo; settings: LDLR-KO mice, high fat diet 12 weeks; lactulose 400 mg/day oral gavage; FIG. 7
Experimental: (§1) Low density lipoprotein receptor (LDLR) knockout mice and their wild type (C57BL6/J), were purchased from Jackson Laboratories (Bar Harbor, Me., USA). Male LDLR knockout mice (9-w old male) received control standard diet (Picolab, MO, USA; diet #5053) or high fat diet (Tekland Custom Diet, WI, USA; diet #TD88137). The LDLR mice received high fat diet were further randomly divided into four groups; G1) 20 mg/kg day atorvastatin group, G2) 400 mg/day lactulose group, G3) combination group, and G4) negative control group (no atorvastatin or lactulose). Atorvastatin was supplemented in the diet and lactulose was administered by oral gavage, twice a day. Wild type mice were maintained on the standard diet. All mice were fed with above noted respective diet for 12 weeks and sacrificed for post mortal analyses.
Blood was collected by heart puncture at left ventricular on the sacrificed mice, followed flushing the blood circulation with PBS, and the aorta and liver lobes were removed for laboratory evaluations.
Aortas and liver lobes were frozen in OCT compound (Sakura finetek, Japan).
Cryosections of aortas and liver lobes were stained with hematoxylin and eosin. Atherosclerosis legions were evaluated by Oil-Red 0 staining.

LDLR-KO mice [4] = assay: Weight increase of LDLR-KO mice on western diet (Example 4); type: in vivo; settings: western diet 12 weeks, atorvastatin 0.16% w/w in HFD, lactulose 3 g/kg/day oral, FIG. 9
Excerpt: (§2) Animals: Homozygous LDL receptor knockout (LDLr−/−; C57BL/6) mice were purchased from the Jackson Laboratory (Bar Harbor, Me.). This genetically manipulated mouse strain is most commonly used for the pre-clinical study of high-fat diet induced hyperlipidemia and atherosclerosis. Nine weeks of age mice were separated into five groups (Groups #1-#5) and fed with normal diet (Group #1; Picolab, 5053) or high fat diet (Group #2-#5; HFD; Harlan Teklad, TD 88137) for 12 weeks. Atorvastatin (Lipitor) was added to the HFD (0.16% w/w) to Group #4 and Group #5. Lactulose (3 g/kg/day, in water solution) was orally administered every 12 hours to Group #3 and Group #5. The LDLR-KO mice were fed for three months with a normal or western diet, with or without lactulose, and with or without atorvastatin.

[5] = test system: Substance P and nerve growth factor (NGF); assay: Pain associated factors (Substance P, NGF) in mice with pregabalin; type: in vivo; settings: hydrogen generated by lactulose
LDLR knockout mice [6] = assay: Serum lipoproteins (HDL, LDL, Ox-LDL) in LDLR knockout mice on high fat diet (Example 3); type: in vivo
Experimental: as §1, with “analyses. Blood was collected by heart puncture at left ventricular on the sacrificed mice, followed flushing the blood circulation with PBS, and the aorta and liver lobes were removed for laboratory evaluations. Blood was drawn from heart in the absence of anti-coagulant agents, and the serum was prepared. High-density lipoprotein cholesterol and low-density lipoprotein (LDL) cholesterol were determined by a commercial colorimetric assay (Sigma-Aldrich, MO, USA). Oxidative-LDL was measured by ELISA (Uscn Life Science, TX, USA).” for “analyses.”

LDLR-KO mice [7] = assay: Serum lipids and Ox-LDL in LDLR-KO mice on western diet (Example 4); type: in vivo; settings: LDLR-KO mice at 1.5 months and 3 months; FIGS. 10A and 10B
Excerpt: as §2, with “atorvastatin. Analysis of serum samples: Lipids, including LDL and HDL, as well as oxidized low density lipoprotein (Ox-LDL) present in serum was measured using an ELISA kit (Cell biolabs).” for “atorvastatin.”

rats = settings: cited from earlier work

Which “production of dimethyl sulfide (DMS)” value (F. nucleatum; F. nucleatum cultured with H2) does the source give for hydrogen here?
Its value is “elevated production”.

And the “Hydrogen sulfide (H2S) concentration” value (F. nucleatum; F. nucleatum incubated in H2 or N2 condition for 4 hours)?
Its value is “tends to be reduced”.

For Inulin, which “amount of H2” value [1] is on record?
Its value is “elevates”.

Which blood ammonia levels [2] does the source give for `OC[C@H]1O[C@@H](O[C@@H]2[C@@H](CO)OC(O)(CO)[C@H]2O)[C@H](O)[C@@H](O)[C@H]1O` (mixture of isomers) [lactulose] here?
The blood ammonia levels was “reduced”.

And the “health-related quality of life” value [2]?
Its value is “improved”.

And the “progression to overt hepatic encephalopathy” value [2]?
Its value is “prevented”.

And the “risk of no improvement in neuropsychological tests” value [2]?
Its value is “reduced”.

What about the fatty liver development (LDLR knockout mice [3]) of the same compound?
The fatty liver development was “remarkable preventative effects”.

What about the weight increase (LDLR-KO mice [4]) of the same compound?
The weight increase was “moderate weight increase; also recorded: suppress weight gain”.

And the “pregabalin-mediated suppression of pain associated factors (Substance P and nerve growth factor (NGF))” value [5]?
The value was “additive effect”.

What about the “amount of HDL (good cholesterol)” value (LDLR knockout mice [6]; LDLR-KO mice, high fat diet 12 weeks, atorvastatin 20 mg/kg day in diet, lactulose 400 mg/day oral gavage, FIG. 8A) of the same compound?
The value was “didn't change”.

What about the “LDL (bad cholesterol) levels” value (LDLR knockout mice [6]; LDLR-KO mice, high fat diet 12 weeks, atorvastatin 20 mg/kg day in diet, lactulose 400 mg/day oral gavage, FIG. 8B) of the same compound?
The value was “no effects; also recorded: did not change”.

What about the “blood Ox-LDL caused by a fat diet” value (LDLR knockout mice [6]; lactulose by itself, previously found) of the same compound?
The value was “can suppress”.

And the “amount of Ox-LDL in serum” value (LDLR-KO mice [7])?
The value was “able to suppress”.

What about the “incidence of MHE” value (rats) of the same compound?
Its value is “decreased”.

And the “latency of BAEP” value (rats)?
Its value is “normalized”.

What about the level of hyper-endotoxemia (rats) of the same compound?
The level of hyper-endotoxemia was “significantly lowered”.

And the level of hyperammonemia (rats)?
Its level of hyperammonemia is “significantly lowered”.
